The text below walks through data of US20240197700A1, “Methods and Compositions for Treating Lysosomal Storage Disorders” (Sanford Health, priority 2021, published 2024).

Entries after “also recorded” stand apart in the source; their conditions may differ.

In assay [1] the test system is palmitoyl-protein thioesterase 1 (PPT1). Kind of assay: PPT1 enzyme activity in MEF lysates. The format is cell-based, mouse. To be noted: wild type, DIV7.
Description: Wild type (WT) and mutant cells were treated with vehicle or AF38469 (40 nM). Cells were plated on day 0 and dosed with drug-containing media on DIV3 and DIV5. Cells were lysed, and protein quantification and enzyme activity assay were performed on DIV7. Data was analyzed with GraphPad Prism™. Two-way ANOVA. Mean±S.E.M. Tukey's multiple comparisons test. *p<0.05, **p<0.01, ***p<0.001, ****p<0.0001.
The next assay concerns Cln3^Δex7/8 mice. Kind of assay: Microglial activation (CD68) in brain of Cln3^Δex7/8 mice. The assay is classed as in vivo, mouse. The following applies: for microglial activation (CD68): VPM/VPL of the thalamus and somatosensory cortex. On the procedure:
FIG. 22(A-B). Short-term chronic treatment with semaglutide impacts glial activation in Cln3^Δex7/8 mice. Beginning at wean, wild type and Cln3^Δex7/8 mice were treated with vehicle or semaglutide 2.571 μg/mouse, 25.71 μg/mouse) through subcutaneous injections three times a week until sacrifice at 16 weeks. Upon sacrifice, a hemisphere of the brain was sectioned at 50 microns on a vibratome; DAB staining immunohistochemistry was then performed using anti-GFAP (Dako, Z0334; 1:5000), anti-CD68 (AbD Serotec, MCA1957; 1:2000), anti-rabbit biotinylated (Vector Labs, BA-1000 1:1000), and anti-rat (Vector Labs, BA-9400 1:1000). Sections were imaged and analyzed using an Aperio Digital Pathology Slide Scanner (AT2) and associated software. Images were extracted from S1BF of the somatosensory cortex, the CA3 of the hippocampus, and the VPM/VPL of the thalamus, key brain regions for Batten disease pathology. Percent area of immunoreactivity were quantified using a threshold analysis in ImageJ™. Statistical analyses were performed using GraphPad Prism™ (v8.4.3; San Diego, CA). […] Increasing concentrations of semaglutide and corresponding genotypes are shown along the x-axis. Nested one-way ANOVA. Mean±S.E.M. Sidak's multiple comparisons test. Compared to the wild type vehicle treated group #p<0.05, ##p<0.01, ###p<0.001, ####p<0.0001. Compared to mutant vehicle treated group *p<0.05, **p<0.01, ***p<0.001, ****p<0.0001.
Specific experimental details are included in figure legends. In general, after collection and preparation, MEFs and PNCs were dosed with vehicle or AF38469 (40 nM, 400 nM. or 4 μM) on DIV3 and DIV5. On DIV7, cells were treated with the following dyes: Hoechst 33342 (1:1000 dilution), LysoTrackerT™ Red DND-99 (1:10,000 dilution), fixed, and imaged. Mice were given vehicle or AF38469 (78.125 μg/ml, 3.125 μg/ml, 0.3125 μg/ml or 0.03125 μg/ml equating approximately to 250 μg/mouse/day, 10 μg/mouse/day, 1 μg/mouse/day, and […], respectively, given a mouse's daily water intake of approximately 3.2 ml per day) in drinking water beginning at wean. Body weight was measured bi-weekly, and a force actimeter test was performed on Cln2^R207X mice at 10 weeks of age. Body weight was measured every month for Cln3^Δex7/8 mice. At 11 and 16 weeks of age, respectively, Cln2^R207X and Cln3^Δex7/8 mice along with age matched wild type control mice were CO2 euthanized and intracardially perfused with PBS. Brains were collected and placed on a 1 mm sagittal brain block. Brains were sliced at the midline and 3 mm right of the midline. One hemisphere was fixed in 4% PFA and sectioned at 50 microns on a vibratome. Immunohistochemistry was performed on free-floating sections. For mitochondrial ATP synthase subunit C (SubC), glial fibrillary acidic protein (GFAP), and cluster of differentiation 68 (CD68) immunolabeling, primary antibodies included anti-SubC (Abcam, ab181243; 1:1000), anti-GFAP (Dako, Z0334; 1:5000), anti-CD68 (AbD Serotec, MCA1957; 1:2000), and secondary antibodies included anti-rabbit biotinylated (Vector Labs, BA-1000 1:1000) and anti-rat (Vector Labs, BA-9400 1:1000). Coverslips were mounted on slides using antifade-mounting media and were stored in the dark before imaging. Sections were imaged and analyzed using an Aperio Digital Pathology Slide Scanner (AT2) and associated software. Images were extracted from S1BF of the somatosensory cortex and the VPM/VPL of the thalamus, with multiple images taken of multiple tissues from each animal.
Short-term chronic treatment with AF38469 impacts glial activation in Cln3^Δex7/8 mice. Beginning at wean, wild type and Cln3^Δex7/8 mice were treated with vehicle (0.2408% DMSO) or AF38469 (0.03125 μg/ml, 0.3125 μg/ml, 3.125 μg/ml, 78.125 μg/ml) continuously through the drinking water continuing until sacrifice at 16 weeks. […]

Regarding semaglutide, in assay [1] (semaglutide 100 nM, Cln2^R207X and Cln3^Δex7/8 MEFs), the PPT1 enzyme activity result is “significantly increased”. The “accumulation of microgliosis (CD68)” value in the assay on Cln3^Δex7/8 mice (semaglutide 2.571 μg/mouse, 25.71 μg/mouse s.c., S1BF, CA3, VPM/VPL, vs vehicle Cln3^Δex7/8) is listed as “had no significant effect”. Besides, the CD68 immunoreactivity entry with Cln3^Δex7/8 mice (semaglutide lower dose 2.571 μg/mouse s.c., S1BF, CA3, VPM/VPL, relative to wild type) is “reduced CD68 immunoreactivity to levels indistinguishable from wild type; also recorded: restored CD68 immunoreactivity to wild type levels”.

Take `CC[C@H](C)[C@H](N)C(=O)NCCN1CCOCC1` [LM11A-31, N-[2-(morpholin-4-yl)ethyl]-L-isoleucinamide]: the PPT1 enzyme activity result in assay [1] (LM11A-31 100 nM, Cln2^R207X and Cln3^Δex7/8 MEFs) is listed as “significantly increased”. The “microglial activation (CD68)” value in the assay with Cln3^Δex7/8 mice (LM11A-31 0.6 mg/mL) is reported as “had no impact”. For the same compound, the “levels of CD68” value in the assay with Cln3^Δex7/8 mice (LM11A-31 0.6 mg/mL, thalamus) is listed as “trends towards decreased levels”.

On to `Cc1cccc(NC(=O)c2ccc(C(F)(F)F)cc2C(=O)O)n1` [AF38469, 2-((6-methylpyridin-2-yl)carbamoyl)-5-(trifluoromethyl)benzoic acid], for which the PPT1 enzyme activity result in assay [1] (AF38469 40 nM, Cln2^R207X, Cln3^Δex7/8, Cln6^nclf, Cln11^−/− MEFs) is given as “increased the overall levels of activity; also recorded: significantly increased”. The “microglial activation (CD68)” value in the assay on Cln3^Δex7/8 mice (AF38469 higher doses 3.125 μg/ml, 78.125 μg/ml) was “increased or had no impact; also recorded: had no impact”; in the assay with Cln3^Δex7/8 mice (AF38469 lower doses 0.03125 μg/ml, 0.3125 μg/ml), “significantly and potently decreased”.
